This is an account of results in publication PMC12525602, “Identification of Selective α-Glucosidase Inhibitors via Virtual Screening with Machine Learning” (Molecules, 2025).

One may read the IC50 as the midpoint of a concentration-inhibition curve. Broadly, the Kd is the concentration at which binding is half-saturated. For orientation: Ki means a dissociation constant, usually derived from enzyme kinetics or from competition with a known ligand. The inhibition is the relative decrease from the control value, in per cent.

In assay [1] the target is α-amylase. Further details: method as in ref 14 (Lim et al. 2022). The conditions noted are these: ref 14 (Lim et al. 2022); cited from earlier work.
The target of assay [2] is α-glucosidase. The arrangement: method as in ref 14 (Lim et al. 2022). Particulars: ref 14 (Lim et al. 2022); cited from earlier work.
Assay [3] concerns the target T1, α-amylase (Sus scrofa, UniProt P00690).
T1 construct: α-amylase isolated from porcine pancreas; purchased Sigma-Aldrich Co. (St. Louis, MI, USA); host or cells: porcine pancreas
T1 sequence (P00690 16-511): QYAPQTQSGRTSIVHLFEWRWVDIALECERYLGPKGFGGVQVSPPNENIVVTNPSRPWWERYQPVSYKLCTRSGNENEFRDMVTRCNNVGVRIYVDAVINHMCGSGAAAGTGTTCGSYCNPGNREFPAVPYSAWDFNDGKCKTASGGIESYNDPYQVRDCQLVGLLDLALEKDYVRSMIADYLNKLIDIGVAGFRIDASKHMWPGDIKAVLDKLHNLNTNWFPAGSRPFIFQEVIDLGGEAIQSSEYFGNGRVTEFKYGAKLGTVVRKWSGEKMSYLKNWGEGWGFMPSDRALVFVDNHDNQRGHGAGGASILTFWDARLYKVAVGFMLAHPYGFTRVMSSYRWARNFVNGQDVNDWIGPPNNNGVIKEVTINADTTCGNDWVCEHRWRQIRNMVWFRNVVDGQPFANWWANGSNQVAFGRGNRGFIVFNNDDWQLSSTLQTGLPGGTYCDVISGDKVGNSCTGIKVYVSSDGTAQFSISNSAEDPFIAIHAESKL
Description: In vitro α-amylase activity assay (G3-CNP, absorbance 405 nm). The assay is classed as biochemical, porcine. Further details: inhibition of α-amylase: dose or concentration left out as unconfirmed. Particulars: for inhibition of α-amylase: […] µM. As for the experimental part: (§1) The inhibitors used in this study were purchased from the ChemDiv website. Unless otherwise stated, all other reagents used in this experiment were analytically pure reagents purchased from Sigma-Aldrich Co. (St. Louis, MI, USA).
The in vitro α-amylase activity assay was determined spectrophotometrically as previously described with only minor modifications. A phosphate-buffer solution at pH 6.8 was configured to obtain α-amylase 5 U/mL and 2-chloro-4-nitrophenyl α-D-maltotrioside (G3-CNP) 0.6 mM. […] Gradient dilution with phosphate-buffer solution was performed to obtain sample solutions of different concentrations.
(§2) The IC50 values of the tested compounds were calculated using nonlinear fitting (logit method).

The target of assay [4] is T2, α-glucosidase (Saccharomyces cerevisiae, UniProt P53341).
T2 construct: purchased Sigma-Aldrich Co. (St. Louis, MI, USA)
In words: Fluorescence quenching experiment (Stern-Volmer). The class given is binding. The conditions noted are these: for Kd: Ka (binding constant); for Kq (bimolecular quenching constant): given as number×10 with exponent 12. As for the experimental part:
The fluorescence quenching experiment was modified somewhat based on previous studies. Fluorescence was determined by titrating α-glucosidase (1.0 mL, 2 U/mL) with different concentrations of inhibited solutions (1.0 mL, 0–200 mM) and left to equilibrate for 5 min. […] Fluorescence burst analysis was performed based on the Stern-Volmer (3) equation.(3) F0/F=1+Kqτ0Q=1+KsvQ
F and F0 are the fluorescence intensities with and without inhibitor, respectively, Ksv is the Stern-Volmer bursting constant, Kq is the bimolecular bursting constant, and [Q] is the concentration of inhibitor.
When the bursting mode conforms to static bursting, the binding constant Ka and the number of binding sites for each enzyme can be calculated from Equation (4).(4) logF0−F/F=logKa+nlogQ
Ka is the binding constant and n is the number of binding sites.
The thermodynamic parameters ∆H, ∆S, and ∆G denote the change in heat, entropy, and free energy, respectively.

For assay [5], the target named is T2, α-glucosidase. Description: Synchronous fluorescence spectroscopy (RSQF). The assay is classed as binding. As for the experimental part:
Changes in the microenvironment of tyrosine (Tyr) and tryptophan (Trp) residue fluorophores were detected simultaneously. The excitation and emission wavelength intervals were set to 15 nm and 60 nm, respectively, and the synchronized fluorescence spectra from 260 to 320 nm were determined. The synchronized fluorescence burst ratio (RSFQ) was calculated as follows:(7) RSQF=1−F/F0

Assay [6] has as its target T2, α-glucosidase. In words: biochemical. The class given is biochemical. As for the experimental part:
To further investigate the inhibition kinetics of the candidate compounds, α-glucosidase activity was determined at different substrate concentrations. The Lineweaver-Burk expression method in Equation (1) was used to test the reaction of a series of compounds with the substrate pNαGP, and the values of maximum velocity (Vmax) and Michaelis-Menten constant (Km) were calculated.(1) 1/v=Km/Vmax1/[S]+1/Vmax where Vmax and Km are the maximum velocity of the enzyme and the Michaelis-Menten constant in the absence of inhibitor, respectively. [S] is the concentration of substrate and inhibitor.(2) Slope=Km/Vmax+Km/Vmax·KiI where v is the initial reaction rate, Vmax is the maximum initial reaction rate, [I] is the concentration of […], and Km is the Michaelis-Menten constant.

The target in assay [7] is T2, α-glucosidase. In words: In vitro α-glucosidase activity assay (pNαGP, absorbance 405 nm). The conditions noted are these: for inhibition at 250 µM: read-out: inhibition of α-glucosidase. The assay is classed as biochemical. The method, then: as §1
The in vitro α-glucosidase activity assay was determined spectrophotometrically as previously described with only minor modifications. A phosphate-buffer solution at pH 6.8 was configured to obtain 0.5 U/mL of α-glucosidase and 0.6 mM of […] (pNαGP). […] Gradient dilution with phosphate-buffer solution was performed to obtain sample solutions of different concentrations. First, different concentrations of compounds (10 µL), enzyme solution (40 µL) and potassium phosphate buffer (100 µL) were pre-incubated in a 96-well plate for 10 min at 37 °C. Then, 50 µL of substrate (pNαGP, 0.6 mM) was added to each microtiter well and incubated for 20 min at 37 °C, and the absorbance at 405 nm was measured to detect the change in enzyme activity.
The enzyme inhibitory activity of the tested compounds was calculated as follows: α−glucosidase inhibition rate%=Abs control−Abs sample/Abs control×100
as §2

Assay [8] addresses α-amylase. Further details: method as in ref 15 (Sun et al. 2017). Particulars: ref 15 (Sun et al. 2017); cited from earlier work.
Assay [9] addresses α-glucosidase. The arrangement: method as in ref 15 (Sun et al. 2017). The conditions noted are these: ref 15 (Sun et al. 2017); cited from earlier work.

Where two headings read alike, the source gives them in different places.

T2 sequence (P53341 whole entry): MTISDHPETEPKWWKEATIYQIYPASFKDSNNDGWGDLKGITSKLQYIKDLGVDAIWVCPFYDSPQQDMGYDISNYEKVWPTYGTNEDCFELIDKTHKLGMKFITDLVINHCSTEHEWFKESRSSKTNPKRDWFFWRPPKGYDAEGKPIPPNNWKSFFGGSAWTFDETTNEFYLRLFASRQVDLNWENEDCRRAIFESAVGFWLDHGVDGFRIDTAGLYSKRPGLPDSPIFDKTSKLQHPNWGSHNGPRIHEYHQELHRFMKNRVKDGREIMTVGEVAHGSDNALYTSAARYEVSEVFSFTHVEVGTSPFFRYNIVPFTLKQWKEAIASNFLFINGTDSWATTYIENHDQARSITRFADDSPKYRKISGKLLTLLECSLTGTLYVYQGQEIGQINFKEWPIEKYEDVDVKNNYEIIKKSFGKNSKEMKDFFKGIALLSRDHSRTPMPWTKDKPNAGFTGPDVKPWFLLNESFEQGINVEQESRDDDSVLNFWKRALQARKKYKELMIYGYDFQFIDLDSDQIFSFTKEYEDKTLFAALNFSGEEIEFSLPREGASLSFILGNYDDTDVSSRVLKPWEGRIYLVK

As for `O=c1c(O)c(-c2ccc(O)c(O)c2)oc2ccccc12` [3′,4′-dihydroxyflavonol], the values for the IC50 on α-amylase [1] and on α-glucosidase [2] were 119 µM and 34.3 µM, respectively.
Consider `O=[N+]([O-])c1ccccc1C1Oc2ccccc2C2CC(c3ccccc3)=NN21` (stereo not drawn) [K411], for which the IC50 at α-amylase [3] was greater than 500 µM; on α-glucosidase [7], 67.8 ± 2.18 µM. Also, on α-amylase [3], the “inhibition of α-amylase” value is “minimal inhibition”. Besides, the values for the Kd on α-glucosidase [4] (T 300.15 K), at α-glucosidase [4] (T 305.15 K) and on α-glucosidase [4] (T 310.15 K) were 1.98 µM, 2.07 µM and 3.91 µM, respectively. Besides, the “Ksv (quenching constant)” value on α-glucosidase [4] (T 300.15 K) is listed as 10.50 ±0.01 104 /M; at α-glucosidase [4] (T 305.15 K), 7.67 ±0.01 104 /M; at α-glucosidase [4] (T 310.15 K), 5.51 ±0.01 104 /M. For the same compound, the figures for the “n (number of binding sites)” value on α-glucosidase [4] (T 300.15 K), on α-glucosidase [4] (T 305.15 K) and on α-glucosidase [4] (T 310.15 K) were 1.15, 1.17 and 1.15, respectively. The figures for the “Kq (bimolecular quenching constant)” value on α-glucosidase [4] (T 305.15 K) and on α-glucosidase [4] (T 310.15 K) were 7.67 ×10^12 (M·S)-1 and 5.51 ×10^12 (M·S)-1, respectively. In addition, the “RSQF values, Trp (Δλ = 60 nm) versus Tyr (Δλ = 15 nm)” value on α-glucosidase [5] is on record as “significantly higher”. On α-glucosidase [6], the affinity, expressed as Ki, was 61.3 ± 14.4 µM. At α-glucosidase [6], the Type of inhibition result is “Competitive”. For the same compound, the Vmax is 8.94±0.06 ×10-1µM/min at α-glucosidase [6] ([I] 7.5 μM); 8.85±0.02 ×10-1µM/min on α-glucosidase [6] ([I] 15 μM); 8.62±0.04 ×10-1µM/min at α-glucosidase [6] ([I] 30 μM); 8.81±0.03 ×10-1µM/min at α-glucosidase [6] ([I] 50 μM); 8.43±0.04 ×10-1µM/min at α-glucosidase [6] ([I] 70 μM). For the same compound, on α-glucosidase [7], the inhibition at 250 µM was roughly 100%.
In the case of `O=C1Nc2ccc(Br)cc2/C1=C\c1nc2ccccc2c(=O)n1-c1ccc(C(=O)O)cc1` [K413], on α-amylase [3], the IC50 is greater than 500 µM and the “inhibition of α-amylase” value was “minimal inhibition”. On α-glucosidase [4] (T 300.15 K), the Kd was 1.59 µM, the “Ksv (quenching constant)” value is listed as 11.46 ±0.01 104 /M and the “n (number of binding sites)” value was 1.17. At α-glucosidase [4] (T 305.15 K), the dissociation constant Kd was 1.62 µM, the “Ksv (quenching constant)” value is recorded as 7.99 ±0.01 104 /M, the “n (number of binding sites)” value is 1.20 and the “Kq (bimolecular quenching constant)” value is 7.99 ×10^12 (M·S)-1. Moreover, on α-glucosidase [4] (T 310.15 K), the Kd was 3.94 µM, the “Ksv (quenching constant)” value was 6.87 ±0.01 104 /M, the “n (number of binding sites)” value worked out at 1.14 and the “Kq (bimolecular quenching constant)” value was 6.87 ×10^12 (M·S)-1. Further, the “RSQF values, Trp (Δλ = 60 nm) versus Tyr (Δλ = 15 nm)” value at α-glucosidase [5] is reported as “significantly higher”. Further, on α-glucosidase [6], the Ki stood at 59.7 ± 10.6 µM and the Type of inhibition entry is “Competitive”. For the same compound, the Vmax on α-glucosidase [6] ([I] 7.5 μM) is on record as 11.41±0.04 ×10-1µM/min. Besides, at α-glucosidase [6] ([I] 15 μM), the Vmax was 11.35±0.08 ×10-1µM/min. In addition, the Vmax on α-glucosidase [6] ([I] 30 μM) is 10.92±0.06 ×10-1µM/min. In addition, on α-glucosidase [6] ([I] 50 μM), the Vmax is on record as 10.84±0.07 ×10-1µM/min. In addition, on α-glucosidase [7], the IC50 was found to be 66.3 ± 7.17 µM and the inhibition at 250 µM is roughly 100%.
Turning to `COc1ccc(-c2nn(-c3ccccc3)c(C)c2-c2cc(C#N)c(C#N)cc2O)cc1` [K802], the IC50 at α-amylase [3] is greater than 500 µM; against α-glucosidase [7], 74.7 ± 4.1 µM. Further, the “inhibition of α-amylase” value at α-amylase [3] is recorded as “minimal inhibition”. The values for the Kd on α-glucosidase [4] (T 300.15 K), on α-glucosidase [4] (T 305.15 K) and on α-glucosidase [4] (T 310.15 K) were 2.51 µM, 19.6 µM and 23.8 µM, respectively. In addition, the “Ksv (quenching constant)” value at α-glucosidase [4] (T 300.15 K) is 0.59 ±0.02 104 /M; on α-glucosidase [4] (T 305.15 K), 0.42 ±0.04 104 /M; on α-glucosidase [4] (T 310.15 K) it was 0.39 ±0.02 104 /M. Besides, the “n (number of binding sites)” value is 1.16 at α-glucosidase [4] (T 300.15 K), 0.99 at α-glucosidase [4] (T 305.15 K) and 0.79 at α-glucosidase [4] (T 310.15 K). The “Kq (bimolecular quenching constant)” value at α-glucosidase [4] (T 300.15 K) is on record as 0.59 ×10^12 (M·S)-1; on α-glucosidase [4] (T 305.15 K), 0.42 ×10^12 (M·S)-1; at α-glucosidase [4] (T 310.15 K), 0.39 ×10^12 (M·S)-1. For the same compound, the “RSQF values, Trp (Δλ = 60 nm) versus Tyr (Δλ = 15 nm)” value on α-glucosidase [5] is given as “significantly higher”. In addition, the Type of inhibition entry on α-glucosidase [6] is recorded as “Competitive”. Moreover, the Vmax is 9.17±0.04 ×10-1µM/min at α-glucosidase [6] ([I] 7.5 μM); 9.83±0.06 ×10-1µM/min at α-glucosidase [6] ([I] 15 μM); 9.35±0.03 ×10-1µM/min at α-glucosidase [6] ([I] 30 μM); 9.62±0.05 ×10-1µM/min on α-glucosidase [6] ([I] 50 μM); 9.48±0.02 ×10-1µM/min on α-glucosidase [6] ([I] 70 μM). The inhibition at 250 µM on α-glucosidase [7] is roughly 100%.
Regarding `O=C(/C=C/c1ccc(O)cc1)c1c(O)cc(O)cc1O` [chalconaringenin], the IC50 at α-amylase [8] is greater than 100 µM; at α-glucosidase [9], 20 µM.
